This note sets out measurements from patent US11046714B2, “2,2-difluorodioxolo A2A receptor antagonists” (Merck Sharp & Dohme Corp., priority 2013, dated 2021).

The assay addresses human A2A receptor (Homo sapiens (Human), UniProt P29274). As to the kind of experiment: competition binding assay using Scintillation Proximity technology. To be noted: membranes from CHO-K1 cells expressing the human A2a receptor; 2.0 nM tritiated compound; Cheng-Prusoff. As to the method: The utility of the compounds in accordance with the present invention as A2A receptor antagonists may be readily determined without undue experimentation by methodologies well known in the art, including by a competition binding assay using Scintillation Proximity technology. Briefly, membranes from CHO-K1 cells expressing the human A2A receptor are incubated with a test compound at various concentrations, e.g., ranging from 3000 nM to 0.15 nM, in a reaction mixture also containing a tritiated form of 5-amino-7-[2-phenethyl]-2-(furan-2-yl)-7H-pyrazolo[4,3-e][1,2,4]triazolo[1,5-c]pyrimidine (the tritiated compound) and wheatgerm agglutin-coated yttrium silicate SPA beads at room temperature. The beads are then allowed to settle to the bottom of the wells, after which the membrane-associated radioactivity is determined by scintillation counting in a microplate reader. Ki values can be determined using the Cheng-Prusoff equation.
Thus, 1.0 μg of membranes from CHO-K1 cells expressing the human A2a receptor were incubated with a compound of the invention at concentrations ranging from 3000 nM to 0.15 nM in a reaction mixture also containing 2.0 nM of a tritiated form of 5-amino-7-[2-phenethyl]-2-(furan-2-yl)-7H-pyrazolo[4,3-e][1,2,4]triazolo[1,5-c]pyrimidine (the tritiated compound) and 100 μg of wheatgerm agglutin-coated yttrium silicate SPA beads for one hour at room temperature with agitation. The beads were then allowed to settle to the bottom of the wells for 1 hr, after which the membrane-associated radioactivity was determined by scintillation counting in a TopCount microplate reader. Ki values were determined using the Cheng-Prusoff equation.
Summary of Materials and Methods Used in A2a Activity Determination:
• Membranes from CHO-K1 cells expressing the human Adenosine2A receptor (Perkin-Elmer #RBHA2AM400UA). • The tritiated compound was prepared according to published methods. • Wheatgerm agglutinin-coated yttrium silicate SPA beads (GE Healthcare #RPNQ0023). Dilute to 25 mg/ml in Assay Buffer. • Assay Buffer: Dulbecco's calcium and magnesium free phosphate buffered saline+10 mM MgCl2 • Adenosine deaminase (ADA) from calf intestine, 10 mg/2 ml (Roche #10 102 105 001). • DMSO • A2a antagonist standard (9-chloro-1-(2-furanyl)-[1,2,4]triazolo[1,5-c]quinazolin-5-amine from Tocris Bioscience) Compound Dilution • Make eight 1:3 serial dilutions in 100% DMSO from a 3 mM compound stock. • Transfer 50 nL of compound into a 384-well OptiPlate (Perkin Elmer). • Typically, final concentrations of compound used in the assay ranged from 3000 nM to 0.152 nM. Radioisotope • Dilute a solution of the tritiated compound to 5.0 nM in assay buffer. This is a 2.5× solution. The final concentration in the assay is 2.0 nM. Calculate the concentration by counting two 5 μL aliquots. Membrane Preparation • Use 1.0 μg of membrane/well. Dilute membranes to 33 μg/mL in assay buffer. Treat with 20 μg/mL ADA for 15 minutes at room temperature to degrade endogenous adenosine. Membrane-Bead Mixture • Use 100 μg/well wheatgerm agglutinin-coated yttrium silicate SPA beads. • Mix ADA-treated membranes and SPA beads together for 30 min prior to assay. Assay Assembly • To the Perkin-Elmer Optiplate-384 containing the compound titration add 20 μL of 2.5× solution of the tritiated compound and 30 μL of the membrane-bead mixture. Incubate for one hour at room temperature with agitation. • Include total binding (assay buffer+1% DMSO) and non-specific binding (CGS 15943, 1 μM) wells. Counting • Allow the beads to settle for one hour. • Count in TopCount. Calculations • A curve fitting program (i.e., Prism, Activity Base, Chemcart) is used to determine the EC50. The Ki value is calculated using the Cheng-Prusoff equation. Ki=EC50/(1+(radioligand concentration/Kd))

human A2A receptor, sequence (P29274 whole entry): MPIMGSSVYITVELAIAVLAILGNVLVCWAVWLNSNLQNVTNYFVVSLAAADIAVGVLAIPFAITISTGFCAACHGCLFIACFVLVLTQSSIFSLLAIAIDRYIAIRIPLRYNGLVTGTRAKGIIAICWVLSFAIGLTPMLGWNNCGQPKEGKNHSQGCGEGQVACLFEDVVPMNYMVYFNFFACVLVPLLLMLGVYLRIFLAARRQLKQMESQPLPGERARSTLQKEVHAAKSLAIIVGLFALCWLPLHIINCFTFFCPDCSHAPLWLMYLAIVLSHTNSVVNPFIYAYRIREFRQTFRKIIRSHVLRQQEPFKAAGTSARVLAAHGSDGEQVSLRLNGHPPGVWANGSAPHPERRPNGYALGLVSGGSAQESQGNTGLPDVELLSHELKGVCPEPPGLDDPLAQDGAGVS

In the case of `C[C@H](Cc1nc2c3ccc4c(c3nc(N)n2n1)OC(F)(F)O4)N1CCc2nc(C3CC3)oc2C1` [Example 81, 8-[(2R)-2-(2-cyclopropyl-6,7-dihydro [1,3]oxazolo[5,4-c]pyridin-5(4H)-yl)propyl]-2,2-difluoro[1,3] dioxolo[4,5-h][1,2,4]triazolo[1,5-c]quinazolin-5-amine], the affinity corresponds to a Ki of 2.4 nM.

Take `Nc1nc2c3c(ccc2c2nc(Cn4cccn4)nn12)OC(F)(F)O3` [Example 128, 8-((1H-pyrazol-1-yl)methyl)-2,2-difluoro-[1,3]dioxolo[4,5-h][1,2,4]triazolo[1,5-c]quinazolin-5-amine]: the Ki is 2.5 nM.

Consider `Cc1csc(CN(Cc2nc3c4ccc5c(c4nc(N)n3n2)OC(F)(F)O5)CC2CC2)n1` [Example 127, 8-({(cyclopropylmethyl)[(4-methyl-1,3-thiazol-2-yl)methyl]amino}methyl)-2,2-difluoro[1,3]dioxolo[4,5-h][1,2,4] triazolo[1,5-c]quinazolin-5-amine], for which the affinity, expressed as Ki, was 1.4 nM.

`CCc1nnc2n1CCN(CCc1nc3c4ccc5c(c4nc(N)n3n1)OC(F)(F)O5)C2` [Example 10, 8-[2-(3-ethyl-5,6-dihydro[1,2,4]triazolo[4,3-a]pyrazin-7(8H)-yl)ethyl]-2,2-difluoro[1,3]dioxolo[4,5-h][1,2,4]triazolo[1,5-c]quinazolin-5-amine]: the Ki was 1.6 nM.

Compound `CC1(F)CN(CCc2nc3c4ccc5c(c4nc(N)n3n2)OC(F)(F)O5)C1` [Example 16, 2,2-difluoro-8-[2-(3-fluoro-3-methylazetidin-1-yl)ethyl] [1,3]dioxolo[4,5-h][1,2,4] triazolo[1,5-c]quinazolin-5-amine] yielded a Ki of 3.2 nM.

With `C[C@@H](Cc1nc2c3ccc4c(c3nc(N)n2n1)OC(F)(F)O4)N1CCCC(C)(F)C1` (single isomer, unassigned) [Example 89, 2,2-difluoro-8-{(2S)-2-[(3R or 3S)-3-fluoro-3-methylpiperidin-1-yl]propyl}[1,3] dioxolo[4,5-h] [1,2,4]triazolo[1,5-c]quinazolin-5-amine], the affinity, expressed as Ki, was 6.1 nM.

Take `Nc1nc2c3c(ccc2c2nc(CN4Cc5cnc(C(F)(F)F)nc5C4)nn12)OC(F)(F)O3` [Example 121, 2,2-difluoro-8-{[2-(trifluoromethyl)-5,7-dihydro-6H-pyrrolo[3,4-d]pyrimidin-6-yl]methyl}[1,3]dioxolo [4,5-h][1,2,4]triazolo[1,5-c]quinazolin-5-amine]: the affinity corresponds to a Ki of 16 nM.

In turn, `Nc1nc2c3c(ccc2c2nc(Cc4cccnc4N4CC[C@@H](c5ccc(C(F)(F)F)cc5)C4)nn12)OC(F)(F)O3` [Example 5, (S)-2,2-difluoro-8-((2-(3-(4-(trifluoromethyl)phenyl)pyrrolidin-1-yl)pyridin-3-yl)methyl)-[1,3]dioxolo[4,5-h][1,2,4]triazolo[1,5-c]quinazolin-5-amine] yielded an inhibition constant Ki of 15 nM.

The compound `CCC1(F)CN(Cc2nc3c4ccc5c(c4nc(N)n3n2)OC(F)(F)O5)C1` [Example 112, 8-[(3-ethyl-3-fluoroazetidin-1-yl)methyl]-2,2-difluoro[1,3] dioxolo[4,5-h][1,2,4]triazolo[1,5-c]quinazolin-5-amine] returned a Ki of 2 nM.

Turning to `C[C@H](Cc1nc2c3ccc4c(c3nc(N)n2n1)OC(F)(F)O4)N1CCc2cccnc2C1` [Example 78, 8-[(2R)-2-(5,8-dihydro-1,7-naphthyridin-7(6H)-yl)propyl]-2,2-difluoro[1,3]dioxolo[4,5-h] [1,2,4]triazolo[1,5-c]quinazolin-5-amine], affinity was put at a Ki of 1.4 nM.

Regarding `C[C@H]1CC(F)(F)CN1CCc1nc2c3ccc4c(c3nc(N)n2n1)OC(F)(F)O4` [Example 26, 8-{2-[(2S)-4,4-difluoro-2-methylpyrrolidin-1-yl]ethyl}-2,2-difluoro[1,3]dioxolo[4,5-h][1,2,4]triazolo[1,5-c]quinazolin-5-amine], the Ki turned out to be 3 nM.

`CO[C@@H]1CCCN(CCc2nc3c4ccc5c(c4nc(N)n3n2)OC(F)(F)O5)C1` [Example 40, 2,2-difluoro-8-{2-[(3R)-3-methoxypiperidin-1-yl]ethyl}[1,3]dioxolo[4,5-h][1,2,4]triazolo[1,5-c]quinazolin-5-amine] registered a Ki of 13 nM.

On to `C[C@@H]1CC[C@@H](C)N1CCc1nc2c3ccc4c(c3nc(N)n2n1)OC(F)(F)O4` [Example 34, 8-{2-[(2R,5R)-2,5-dimethylpyrrolidin-1-yl]ethyl}-2,2-difluoro[1,3]dioxolo[4,5-h][1,2,4]triazolo[1,5-c]quinazolin-5-amine], for which the Ki turned out to be 11 nM.

Regarding `Nc1nc2c3c(ccc2c2nc(CC(CO)CO)nn12)OC(F)(F)O3` [Example 149, 2-[(5-amino-2,2-difluoro[1,3]dioxolo[4,5-h][1,2,4]triazolo[1,5-c]quinazolin-8-yl)methyl]propane-1,3-diol], the Ki stood at 2.7 nM.

`Nc1nc2c3c(ccc2c2nc(CCN4CC5CC5C4)nn12)OC(F)(F)O3` (centres unmarked) [Example 35, 8-[2-(3-azabicyclo[3.1.0]hex-3-yl)ethyl]-2,2-difluoro[1,3] dioxolo[4,5-h][1,2,4]triazolo [1,5-c]quinazolin-5-amine] yielded a Ki of 3 nM.

`Nc1nc2c3c(ccc2c2nc(CCN4C[C@H](F)[C@@H](F)C4)nn12)OC(F)(F)O3` [Example 23, 8-{2-[(3S,4S)-3,4-difluoropyrrolidin-1-yl]ethyl}-2,2-difluoro[1,3]dioxolo[4,5-h][1,2,4]triazolo[1,5-c]quinazolin-5-amine] yielded a Ki of 1.6 nM.

Regarding `C[C@H]1COCCN1CCc1nc2c3ccc4c(c3nc(N)n2n1)OC(F)(F)O4` [Example 43, 2,2-difluoro-8-{2-[(3S)-3-methylmorpholin-4-yl]ethyl}[1,3]dioxolo[4,5-h][1,2,4]triazolo[1,5-c]quinazolin-5-amine], the affinity, expressed as Ki, was 7.8 nM.

Regarding `C[C@H](Cc1nc2c3ccc4c(c3nc(N)n2n1)OC(F)(F)O4)N1Cc2ccncc2C1` [Example 74, (R)-8-(2-(1H-pyrrolo[3,4-c]pyridin-2(3H)-yl)propyl)-2,2-difluoro-[1,3]dioxolo[4,5-h][1,2,4]triazolo[1,5-c]quinazolin-5-amine], the Ki was 7.1 nM.

The compound `CC(Cc1nc2c3ccc4c(c3nc(N)n2n1)OC(F)(F)O4)N1CCCC(F)(F)C1` (single isomer, unassigned) [Example 96, (R or S)-8-[2-(3,3-difluoropiperidin-1-yl)propyl]-2,2-difluoro[1,3] dioxolo[4,5-h][1,2,4]triazolo[1,5-c] quinazolin-5-amine] showed a Ki of 4.1 nM.

Turning to `Nc1nc2c3c(ccc2c2nc(C4CCCN(c5cncnc5)C4)nn12)OC(F)(F)O3` (single isomer, unassigned) [Example 147, (R or S)-2,2-difluoro-8-(1-pyrimidin-5-ylpiperidin-3-yl)[1,3]dioxolo[4,5-h][1,2,4]triazolo[1,5-c]quinazolin-5-amine], the Ki came to 2.9 nM.

Turning to `Nc1nc2c3c(ccc2c2nc(CCN4CC[C@@H](c5ccccc5)C4)nn12)OC(F)(F)O3` [Example 36, 2,2-difluoro-8-{2-[(3S)-3-phenylpyrrolidin-1-yl]ethyl}[1,3]dioxolo[4,5-h][1,2,4]triazolo[1,5-c]quinazolin-5-amine], the affinity, expressed as Ki, was 39 nM.

For the compound `Nc1nc2c3c(ccc2c2nc(CCN4CCCC(F)(F)C4)nn12)OC(F)(F)O3` [Example 29, 8-[2-(3,3-difluoropiperidin-1-yl)ethyl]-2,2-difluoro[1,3] dioxolo[4,5-h][1,2,4]triazolo [1,5-c]quinazolin-5-amine], the Ki stood at 1.6 nM.

Compound `Nc1nc2c3c(ccc2c2nc(CN4CCC(Oc5ccc(F)cc5)CC4)nn12)OC(F)(F)O3` [Example 117, 2,2-difluoro-8-{[4-(4-fluorophenoxy)piperidin-1-yl]methyl}[1,3]dioxolo [4,5-h][1,2,4]triazolo[1,5-c]quinazolin-5-amine] came in with a Ki of 4.9 nM.

Usually Ki stands for a measure of affinity in units of concentration, obtained from inhibition or displacement. Higher therefore signals lower affinity.
